Results reported in article PMC10687071 (The Journal of Biological Chemistry, 2023).

Molecular target: T1, V83G mutant EAG1 channels (Mus musculus, UniProt Q60603, V83G)
T1 construct: expressed in transfected cells; host or cells: Xenopus laevis oocytes injected with cRNA
T1 sequence (Q60603 1-989 V83G): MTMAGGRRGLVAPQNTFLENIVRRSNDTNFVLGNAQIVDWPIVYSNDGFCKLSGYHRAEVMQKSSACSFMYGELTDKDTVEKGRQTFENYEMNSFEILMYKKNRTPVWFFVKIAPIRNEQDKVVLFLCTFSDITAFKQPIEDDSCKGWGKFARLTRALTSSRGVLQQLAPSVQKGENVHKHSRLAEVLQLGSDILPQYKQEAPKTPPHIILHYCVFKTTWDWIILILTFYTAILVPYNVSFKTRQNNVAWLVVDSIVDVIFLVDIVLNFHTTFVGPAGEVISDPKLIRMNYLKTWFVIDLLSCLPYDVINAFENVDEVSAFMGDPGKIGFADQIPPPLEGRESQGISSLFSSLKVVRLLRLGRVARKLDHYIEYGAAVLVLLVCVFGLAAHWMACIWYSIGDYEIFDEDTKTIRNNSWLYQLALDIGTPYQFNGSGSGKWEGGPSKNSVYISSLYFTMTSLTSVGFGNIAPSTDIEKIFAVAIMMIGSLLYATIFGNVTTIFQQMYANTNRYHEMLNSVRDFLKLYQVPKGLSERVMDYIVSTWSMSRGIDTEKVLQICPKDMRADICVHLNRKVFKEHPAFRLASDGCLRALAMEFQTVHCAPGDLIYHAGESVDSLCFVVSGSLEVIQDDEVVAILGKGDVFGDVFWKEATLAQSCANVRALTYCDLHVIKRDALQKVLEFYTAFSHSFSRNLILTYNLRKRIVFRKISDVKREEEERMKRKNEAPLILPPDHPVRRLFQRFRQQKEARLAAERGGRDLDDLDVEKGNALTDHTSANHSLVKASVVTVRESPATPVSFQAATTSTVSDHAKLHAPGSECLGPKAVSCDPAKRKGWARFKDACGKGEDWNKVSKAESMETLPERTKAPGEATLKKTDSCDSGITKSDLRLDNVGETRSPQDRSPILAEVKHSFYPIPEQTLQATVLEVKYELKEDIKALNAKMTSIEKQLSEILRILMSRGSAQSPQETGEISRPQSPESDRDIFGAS
Assay: TEVC recording, imipramine inhibition, V83G mutant
Type: cell-based
Settings: V83G mutant EAG1 channel, +50 mV
Excerpt: The cDNA encoding wild-type (WT) mouse EAG1 channels in pGH19 vector was kindly provided by G. Robertson (University of Wisconsin-Madison, Madison, WI). The mutant ΔPAS EAG1 channel in pGH19 with the deletion of the PAS domain residues 2 to 130 was generated by Bio Basic Inc and verified by DNA sequencing (Genewiz). Mutant EAG1 channels with single amino acid substitutions were generated by Genewiz and verified by DNA sequencing. cRNA was transcribed using the T7 mMessage mMachine kit (Thermo Fisher Scientific). Defolliculated Xenopus laevis oocytes were purchased from Ecocyte Bioscience or Xenopus1 and injected with the cRNA using a Nanoinject II oocyte injector (Drummond).
For EAG1 current recordings, oocytes were placed into a handmade chamber containing a bath solution for the current recording. The currents were recorded using a TEVC technique with OC-725C amplifier (Warner Instruments) and pClamp11 software (Molecular Devices). The signals were digitized using Digidata 1550 (Molecular Devices). Patch pipettes were pulled from borosilicate glass and had resistances of 0.7 to 1.5 MΩ. The recording (bath) solution contained 96 mM NaCl, 4 mM KCl, 0.1 mM CaCl2, 1.8 mM MgCl2, and 5 mM HEPES, pH 7.5. The pipette solution contained 3 M KCl. […]

IC50: 44.3 ± 2.6 µM
SMILES: CN(C)CCCN1c2ccccc2CCc2ccccc21 [imipramine]
